Assay results from patent US20210395313A1, “PEPTIDE PAC1 ANTAGONISTS” (AMGEN INC., priority 2017, published 2021).
Where a SMILES comes first, the peptide text is derived from it. Bridges are numbered along the chain shown (N, C = ends).

How the values were obtained:
human PAC1 receptor = target: T1, human PAC1 receptor (Homo sapiens, UniProt P41586); assay: LANCE Ultra cAMP accumulation antagonist assay in SHSY-5Y cells; format: cell-based;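 further: inhibition of cAMP accumulation evoked by PAC1 agonist at its EC80 in SHSY-5Y cells endogenously expressing receptor, 30 min preincubation then 15 min agonist, TR-FRET readout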
T1 construct: SHSY-5Y (human neuroblastoma cell line) and RG-2 (rat glioma cell line) cells endogenously express human and rat PAC1 receptors, respectively; endogenous in cells; host or cells: SHSY-5Y human neuroblastoma cells
T1 sequence (P41586 21-468): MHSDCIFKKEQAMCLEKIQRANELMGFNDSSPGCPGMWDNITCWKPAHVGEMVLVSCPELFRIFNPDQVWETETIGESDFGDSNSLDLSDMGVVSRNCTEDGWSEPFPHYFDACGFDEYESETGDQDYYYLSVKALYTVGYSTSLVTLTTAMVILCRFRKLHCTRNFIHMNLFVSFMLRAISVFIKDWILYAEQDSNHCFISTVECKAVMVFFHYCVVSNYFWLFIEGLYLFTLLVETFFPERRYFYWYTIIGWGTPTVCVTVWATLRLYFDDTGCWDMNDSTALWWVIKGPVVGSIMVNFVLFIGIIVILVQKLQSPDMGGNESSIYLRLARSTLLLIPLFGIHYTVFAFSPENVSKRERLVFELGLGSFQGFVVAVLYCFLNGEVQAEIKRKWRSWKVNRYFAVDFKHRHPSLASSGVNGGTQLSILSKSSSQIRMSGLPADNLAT

rat PAC1 receptor = target: T2, rat PAC1 receptor (Rattus norvegicus, UniProt P32215); assay: LANCE Ultra cAMP accumulation antagonist assay in RG-2 cells; format: cell-based;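 further: RG-2 rat glioma cells endogenously expressing PAC1, test peptide preincubated 30 min, then PAC1 agonist added at its EC80 for 15 min, cAMP accumulation read by LANCE Ultra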
T2 construct: SHSY-5Y (human neuroblastoma cell line) and RG-2 (rat glioma cell line) cells endogenously express human and rat PAC1 receptors, respectively; endogenous in cells; host or cells: RG-2 rat glioma cells
T2 sequence (P32215 20-523): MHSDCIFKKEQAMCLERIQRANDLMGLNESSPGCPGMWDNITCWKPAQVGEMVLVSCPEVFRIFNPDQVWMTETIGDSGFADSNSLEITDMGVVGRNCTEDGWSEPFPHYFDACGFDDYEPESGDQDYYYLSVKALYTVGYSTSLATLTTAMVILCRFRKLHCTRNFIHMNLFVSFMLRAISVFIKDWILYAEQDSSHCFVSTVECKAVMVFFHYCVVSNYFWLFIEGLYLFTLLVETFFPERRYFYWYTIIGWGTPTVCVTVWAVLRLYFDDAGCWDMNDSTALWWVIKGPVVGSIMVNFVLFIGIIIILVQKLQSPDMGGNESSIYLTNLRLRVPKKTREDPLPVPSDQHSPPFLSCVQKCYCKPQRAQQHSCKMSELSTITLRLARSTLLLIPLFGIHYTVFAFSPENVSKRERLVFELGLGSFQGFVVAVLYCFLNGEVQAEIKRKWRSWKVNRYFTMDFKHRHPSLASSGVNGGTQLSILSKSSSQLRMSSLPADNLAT

SMILES	IC50 (human PAC1 receptor)	IC50 (rat PAC1 receptor)
CC[C@H](C)[C@H](NC(=O)[C@H](C)NC(=O)[C@H](CCCCN)NC(=O)[C@H](CCCNC(=N)N)NC(=O)[C@H](Cc1ccccc1)NC(=O)[C@H](CCC(N)=O)NC(=O)[C@@H]1CSSC[C@H](N)C(=O)N[C@@H](CC(=O)O)C(=O)N[C@@H](C)C(=O)N[C@@H]([C@@H](C)O)C(=O)N1)C(=O)N[C@@H](CC(=O)O)C(=O)N[C@@H](CC(=O)O)C(=O)N[C@H]1CSSC[C@@H](C(=O)N[C@@H](CCSC)C(=O)N[C@@H](CCCCN)C(=O)N[C@@H](CCC(N)=O)C(=O)N[C@@H](CCCCN)C(=O)N[C@@H](CCCCN)C(=O)N[C@@H](CCCCN)C(=O)N[C@@H](CCC(=O)O)C(=O)N[C@@H](Cc2ccccc2)C(=O)N[C@@H](CCCCN)C(=O)N[C@@H](C)C(=O)NCC(=O)N[C@@H](Cc2ccc(O)cc2)C(=O)O)NC(=O)[C@H](C)NC(=O)[C@H](CCCCN)NC(=O)[C@H](Cc2ccccc2)NC(=O)[C@H](C(C)C)NC(=O)[C@H](CO)NC(=O)[C@H](CO)NC(=O)[C@H](Cc2c[nH]cn2)NC(=O)[C@H](Cc2c[nH]cn2)NC(=O)[C@H](C)NC(=O)[C@H](CCC(N)=O)NC(=O)[C@H](CCCCN)NC(=O)[C@H](C)NC1=O [compound 29] (H-CDATCQFRKAIDDCAKQAHHSSVFKACMKQKKKEFKAGY-OH; disulfide 1-5, 14-27)	0.01 to 1 nM	0.01 to 1 nM
CC[C@H](C)[C@H](NC(=O)[C@H](C)NC(=O)[C@H](CCCCN)NC(=O)[C@H](CCCNC(=N)N)NC(=O)[C@H](Cc1ccccc1)NC(=O)[C@H](CCC(N)=O)NC(=O)[C@@H]1CSSC[C@H](N)C(=O)N[C@@H](CC(=O)O)C(=O)N[C@@H](C)C(=O)N[C@@H]([C@@H](C)O)C(=O)N1)C(=O)N[C@@H](CC(=O)O)C(=O)N[C@@H](CC(=O)O)C(=O)N[C@H]1CSSC[C@@H](C(=O)N[C@@H](CCSC)C(=O)N[C@@H](CCCCN)C(=O)N[C@@H](CCC(N)=O)C(=O)N[C@@H](CCCCN)C(=O)N[C@@H](CCCCN)C(=O)N[C@@H](CCCCN)C(=O)N[C@@H](CCC(=O)O)C(=O)N[C@@H](Cc2ccccc2)C(=O)N[C@@H](CCCCN)C(=O)N[C@@H](C)C(=O)NCC(=O)N[C@@H](Cc2ccc(O)cc2)C(=O)O)NC(=O)[C@H](C)NC(=O)[C@H](CCCCN)NC(=O)[C@H](Cc2ccccc2)NC(=O)[C@H](C(C)C)NC(=O)[C@H](CO)NC(=O)[C@H](CO)NC(=O)[C@H](Cc2c[nH]cn2)NC(=O)[C@H](Cc2ccc(O)cc2)NC(=O)[C@H](C)NC(=O)[C@H](CCC(N)=O)NC(=O)[C@H](CCCCN)NC(=O)[C@H](C)NC1=O [compound 30] (H-CDATCQFRKAIDDCAKQAYHSSVFKACMKQKKKEFKAGY-OH; disulfide 1-5, 14-27)	0.01 to 1 nM	0.01 to 1 nM
C#CC[C@@H]1NC(=O)[C@H](CCC(N)=O)NC(=O)[C@H](CCCCN)NC(=O)[C@H](CCC(N)=O)NC(=O)[C@@H](NC(=O)[C@H](CC(=O)O)NC(=O)[C@H](CC(=O)O)NC(=O)[C@@H](NC(=O)[C@H](C)NC(=O)[C@H](CCCCN)NC(=O)[C@H](CCCNC(=N)N)NC(=O)[C@H](Cc2ccccc2)NC(=O)[C@H](CCC(N)=O)NC(=O)[C@@H]2CSSC[C@H](N)C(=O)N[C@@H](CC(=O)O)C(=O)N[C@@H](C)C(=O)N[C@@H]([C@@H](C)O)C(=O)N2)[C@@H](C)CC)CSSC[C@@H](C(=O)N[C@@H](CCSC)C(=O)N[C@@H](CCCCN)C(=O)N[C@@H](CCC(N)=O)C(=O)N[C@@H](CCCCN)C(=O)N[C@@H](CCCCN)C(=O)N[C@@H](CCCCN)C(=O)N[C@@H](CCC(=O)O)C(=O)N[C@@H](Cc2ccccc2)C(=O)N[C@@H](CCCCN)C(=O)N[C@@H](C)C(=O)NCC(N)=O)NC(=O)[C@H](C)NC(=O)[C@H](CCCCN)NC(=O)[C@H](Cc2ccccc2)NC(=O)[C@H](C(C)C)NC(=O)[C@H](CO)NC(=O)CNC(=O)[C@@H]2CCCN2C(=O)[C@H](C(C)C)NC(=O)[C@H](CC(N)=O)NC(=O)[C@H](CO)NC(=O)[C@H](Cc2c[nH]cn2)NC(=O)[C@H](Cc2c[nH]cn2)NC1=O [compound 32]	0.01 to 1 nM	0.01 to 1 nM
CC[C@H](C)[C@H](NC(=O)[C@H](C)NC(=O)[C@H](CCCCN)NC(=O)[C@H](CCCNC(=N)N)NC(=O)[C@H](Cc1ccccc1)NC(=O)[C@H](CCC(N)=O)NC(=O)[C@@H]1CSSC[C@H](N)C(=O)N[C@@H](CC(=O)O)C(=O)N[C@@H](C)C(=O)N[C@@H]([C@@H](C)O)C(=O)N1)C(=O)N[C@@H](CC(=O)O)C(=O)N[C@@H](CC(=O)O)C(=O)N[C@H]1CSSC[C@@H](C(=O)N[C@@H](CCSC)C(=O)N[C@@H](CCCCN)C(=O)N[C@@H](CCC(N)=O)C(=O)N[C@@H](CCCCN)C(=O)N[C@@H](CCCCN)C(=O)N[C@@H](CCCCN)C(=O)N[C@@H](CCC(=O)O)C(=O)N[C@@H](Cc2ccccc2)C(=O)N[C@@H](CCCCN)C(=O)N[C@@H](C)C(=O)NCC(=O)N[C@@H](Cc2c[nH]cn2)C(=O)O)NC(=O)[C@H](C)NC(=O)[C@H](CCCCN)NC(=O)[C@H](Cc2ccccc2)NC(=O)[C@H](C(C)C)NC(=O)[C@H](CO)NC(=O)[C@H](CO)NC(=O)[C@H](Cc2c[nH]cn2)NC(=O)[C@H](Cc2ccc(O)cc2)NC(=O)[C@H](C)NC(=O)[C@H](CCC(N)=O)NC(=O)[C@H](CCCNC(=N)N)NC(=O)[C@H](C)NC1=O [compound 35] (H-CDATCQFRKAIDDCARQAYHSSVFKACMKQKKKEFKAGH-OH; disulfide 1-5, 14-27)	0.01 to 1 nM	0.01 to 1 nM
CC[C@H](C)[C@H](NC(=O)[C@H](C)NC(=O)[C@H](CCCCN)NC(=O)[C@H](CCCNC(=N)N)NC(=O)[C@H](Cc1ccccc1)NC(=O)[C@H](CCC(N)=O)NC(=O)[C@@H]1CSSC[C@H](N)C(=O)N[C@@H](CC(=O)O)C(=O)N[C@@H](C)C(=O)N[C@@H]([C@@H](C)O)C(=O)N1)C(=O)N[C@@H](CC(=O)O)C(=O)N[C@@H](CC(=O)O)C(=O)N[C@H]1CSSC[C@@H](C(=O)N[C@@H](CCSC)C(=O)N[C@@H](CCCCN)C(=O)N[C@@H](CCC(N)=O)C(=O)N[C@@H](CCCCN)C(=O)N[C@@H](CCCCN)C(=O)N[C@@H](CCCCN)C(=O)N[C@@H](CCC(=O)O)C(=O)N[C@@H](Cc2ccccc2)C(=O)N[C@@H](CCCCN)C(=O)N[C@@H](C)C(=O)NCC(=O)N[C@@H](Cc2c[nH]cn2)C(=O)O)NC(=O)[C@H](C)NC(=O)[C@H](CCCCN)NC(=O)[C@H](Cc2ccccc2)NC(=O)[C@H](C(C)C)NC(=O)[C@H](CO)NC(=O)[C@H](CO)NC(=O)[C@H](Cc2c[nH]cn2)NC(=O)[C@H](Cc2c[nH]cn2)NC(=O)[C@H](C)NC(=O)[C@H](CCC(N)=O)NC(=O)[C@H](CCCNC(=N)N)NC(=O)[C@H](C)NC1=O [compound 36] (H-CDATCQFRKAIDDCARQAHHSSVFKACMKQKKKEFKAGH-OH; disulfide 1-5, 14-27)	0.01 to 1 nM	0.01 to 1 nM
CC[C@H](C)[C@H](NC(=O)[C@H](C)NC(=O)[C@H](CCCCN)NC(=O)[C@H](CCCNC(=N)N)NC(=O)[C@H](Cc1ccccc1)NC(=O)[C@H](CCC(N)=O)NC(=O)[C@@H]1CSSC[C@H](N)C(=O)N[C@@H](CC(=O)O)C(=O)N[C@@H](C)C(=O)N[C@@H]([C@@H](C)O)C(=O)N1)C(=O)N[C@@H](CC(=O)O)C(=O)N[C@@H](CC(=O)O)C(=O)N[C@H]1CSSC[C@@H](C(=O)N[C@@H](CCSC)C(=O)N[C@@H](CCCCN)C(=O)N[C@@H](CCC(N)=O)C(=O)N[C@@H](CCCCN)C(=O)N[C@@H](CCCCN)C(=O)N[C@@H](CCCCN)C(=O)N[C@@H](CCC(=O)O)C(=O)N[C@@H](Cc2ccccc2)C(=O)N[C@@H](CCCCN)C(=O)N[C@@H](C)C(=O)NCC(=O)N[C@@H](Cc2ccc(O)cc2)C(=O)O)NC(=O)[C@H](C)NC(=O)[C@H](CCCCN)NC(=O)[C@H](Cc2ccccc2)NC(=O)[C@H](C(C)C)NC(=O)[C@H](CO)NC(=O)[C@H](CO)NC(=O)[C@H](Cc2c[nH]cn2)NC(=O)[C@H](C)NC(=O)[C@H](CCC(N)=O)NC(=O)[C@H](CCCCN)NC(=O)[C@H](C)NC1=O [compound 37] (H-CDATCQFRKAIDDCAKQAHSSVFKACMKQKKKEFKAGY-OH; disulfide 1-5, 14-26)	1 to 100 nM	0.01 to 1 nM
